Measured values as given in PubChem BioAssay AID330 (DTP/NCI, 2004).
Toxic doses and inconclusive results are not listed. The calls were made as follows: active = survival T/C of 150% or more; inactive = T/C below 125% in these data.

System: P388 leukemia ip, CD2F1 mice, survival T/C
Assay: NCI In Vivo Anticancer Drug Screen. Data for tumor model P388 Leukemia (intraperitoneal) in CD2F1 (CDF1) mice
Details: endpoint: median survival time, higher = longer survival
Outline: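 Mice carrying the transplanted tumor received test compound or vehicle. Survival was recorded in each group, and the value is the treated-group measurement divided by that of the vehicle-treated control group.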

[1] = dose: 60.0 mg/kg/injection, schedule: Q01DX005 (ip), vehicle: saline with Tween-80
[2] = dose: 120.0 mg/kg/injection, schedule: Q01DX005 (ip), vehicle: saline with Tween-80
[3] = dose: 240.0 mg/kg/injection, schedule: Q01DX005 (ip), vehicle: saline with Tween-80
[4] = dose: 100.0 mg/kg/injection, schedule: Q04DX002 (ip), vehicle: saline with Tween-80
[5] = dose: 200.0 mg/kg/injection, schedule: Q04DX002 (ip), vehicle: saline with Tween-80
[6] = dose: 400.0 mg/kg/injection, schedule: Q04DX002 (ip), vehicle: saline with Tween-80

Measured: T/C

Brc1ccc2c(NCCCCCCCCNc3c4ccccc4nc4cc(Br)ccc34)c3ccccc3nc2c1
inactive: dose: 0.32 mg/kg/injection, schedule: Q01DX009 (ip), vehicle: other 100 % of control | dose: 0.63 mg/kg/injection, schedule: Q01DX009 (ip), vehicle: other 99 % of control | dose: 1.25 mg/kg/injection, schedule: Q01DX009 (ip), vehicle: other 107 % of control | dose: 2.5 mg/kg/injection, schedule: Q01DX009 (ip), vehicle: other 109 % of control | dose: 5.0 mg/kg/injection, schedule: Q01DX009 (ip), vehicle: other 96 % of control | dose: 10.0 mg/kg/injection, schedule: Q01DX009 (ip), vehicle: other 101 % of control

COc1ccc(C2=C(C#N)C(=O)OCCN2C)cc1
inactive: [1] 94 % of control | [2] 100 % of control | [3] 101 % of control

CC1=NN(C2=NS(=O)(=O)c3ccccc3N2c2ccccc2)C(=O)C1
inactive: [4] 108 % of control | [5] 106 % of control | [6] 97 % of control

CNCCCC1c2ccccc2C=Cc2ccccc21
inactive: dose: 6.25 mg/kg/injection, schedule: Q01DX009 (ip), vehicle: saline 100 % of control | dose: 12.5 mg/kg/injection, schedule: Q01DX009 (ip), vehicle: saline 90 % of control

Cc1ccc(/[N+]([O-])=C/c2ccccc2)cc1
inactive: [1] 92 % of control | [2] 94 % of control | [3] 89 % of control

Nc1cccc2c1C(=O)c1cccc(N)c1C2=O
inactive: dose: 50.0 mg/kg/injection, schedule: Q01DX005 (ip), vehicle: saline with Tween-80 100 % of control | dose: 50.0 mg/kg/injection, schedule: Q01DX009 (ip), vehicle: Klucel (hydroxypropylcellulose) (HPC) 97 % of control | dose: 100.0 mg/kg/injection, schedule: Q01DX005 (ip), vehicle: saline with Tween-80 91 % of control | dose: 100.0 mg/kg/injection, schedule: Q01DX009 (ip), vehicle: Klucel (hydroxypropylcellulose) (HPC) 100 % of control | dose: 200.0 mg/kg/injection, schedule: Q01DX005 (ip), vehicle: saline with Tween-80 100 % of control | dose: 200.0 mg/kg/injection, schedule: Q01DX009 (ip), vehicle: Klucel (hydroxypropylcellulose) (HPC) 108 % of control | dose: 400.0 mg/kg/injection, schedule: Q01DX009 (ip), vehicle: Klucel (hydroxypropylcellulose) (HPC) 104 % of control

Cc1ccc(C(=O)Nc2ccc(S(=O)(=O)O)c3cc(S(=O)(=O)O)cc(S(=O)(=O)O)c23)cc1NC(=O)c1cccc(NC(=O)Nc2cccc(C(=O)Nc3cc(C(=O)Nc4ccc(S(=O)(=O)O)c5cc(S(=O)(=O)O)cc(S(=O)(=O)O)c45)ccc3C)c2)c1
inactive: dose: 25.0 mg/kg/injection, schedule: Q01DX005 (ip), vehicle: saline 106 % of control | dose: 50.0 mg/kg/injection, schedule: Q01DX005 (ip), vehicle: saline 95 % of control

C[C@H]1C[C@H]2[C@@H]3CC[C@](O)(C(=O)CO)[C@@]3(C)C[C@H](O)[C@]2(F)[C@@]2(C)C=CC(=O)C=C12
inactive: dose: 12.5 mg/kg/injection, schedule: Q01DX009 (ip), vehicle: saline with Tween-80 95 % of control | dose: 25.0 mg/kg/injection, schedule: Q01DX009 (ip), vehicle: saline with Tween-80 104 % of control | dose: 50.0 mg/kg/injection, schedule: Q01DX009 (ip), vehicle: saline with Tween-80 104 % of control | dose: 100.0 mg/kg/injection, schedule: Q04DX003 (ip), vehicle: saline with Tween-80 109 % of control | dose: 200.0 mg/kg/injection, schedule: Q04DX003 (ip), vehicle: saline with Tween-80 109 % of control | dose: 400.0 mg/kg/injection, schedule: Q04DX003 (ip), vehicle: saline with Tween-80 90 % of control

COc1ccc(CS(=O)CC(N)C(=O)O)cc1 (stereo unspecified)
inactive: [4] 98 % of control | [5] 104 % of control | [6] 86 % of control

CC1=N/C(=C\c2ccccc2O)C(=O)O1
inactive: dose: 50.0 mg/kg/injection, schedule: Q01DX005 (ip), vehicle: Klucel (hydroxypropylcellulose) (HPC) 104 % of control | dose: 100.0 mg/kg/injection, schedule: Q01DX005 (ip), vehicle: Klucel (hydroxypropylcellulose) (HPC) 98 % of control | dose: 200.0 mg/kg/injection, schedule: Q01DX005 (ip), vehicle: Klucel (hydroxypropylcellulose) (HPC) 98 % of control

CCOC(=O)c1c(C)noc1NC
inactive: dose: 60.0 mg/kg/injection, schedule: Q01DX005 (ip), vehicle: Klucel (hydroxypropylcellulose) (HPC) 100 % of control | dose: 120.0 mg/kg/injection, schedule: Q01DX005 (ip), vehicle: Klucel (hydroxypropylcellulose) (HPC) 101 % of control | dose: 240.0 mg/kg/injection, schedule: Q01DX005 (ip), vehicle: Klucel (hydroxypropylcellulose) (HPC) 100 % of control

CC1CCCC(C2CC3CCCCC3C(N)[N-]2)[N-]1.CC1CCCC(C2CC3CCCCC3C(N)[N-]2)[N-]1.O=[N+]([O-])O.[Cu+2] (stereo unspecified)
inactive: dose: 100.0 mg/kg/injection, schedule: Q04DX002 (ip), vehicle: suspension in saline 105 % of control | dose: 200.0 mg/kg/injection, schedule: Q04DX002 (ip), vehicle: suspension in saline 112 % of control

O=C(CC1=NC2NN(c3ccccc3)C(=O)C2=C1CC(=O)c1ccc(F)cc1)c1ccc(F)cc1 (stereo unspecified)
inactive: [1] 98 % of control | [2] 97 % of control | [3] 97 % of control
